test system: grass carp pituitary cells; assay: Receptor antagonist / pathway inhibitor co-treatment on HK2-induced mRNA expression in grass carp pituitary cells; format: cell-based, grass carp (Ctenopharyngodon idellus); settings: inhibitor 1 μM with HK2 1 μM, 24 h co-treatment
Experimental: In this experiment, a pharmacological approach was used to clarify the receptor specificity for SLα and PRL regulation by HK2. Pituitary cells were incubated for 24 h with grass carp HK2 (1 μM) with simultaneous treatment of the NK1R antagonist Rolaptiant (10 μM) or NK3R antagonist SB222200 (10 μM), respectively.
Figure 7 The receptor specificity and signal transduction for PRL and SLα regulation by HK2 in grass carp pituitary cells. (A) Effects of NKR subtype-specific antagonists on HK2-induced PRL and SLα mRNA expression. Pituitary cells were challenged for 24 h with grass carp HK2 (1 μM) in the presence or absence of the NK1R antagonist Rolaptiant (10 μM) or NK3R antagonist SB22200 (10 μM), respectively. (B) Effects of 24-h co-treatment with AC inhibitor MDL12330A (10 μM) or PKA inhibitor H89 (10 μM) on HK2-induced PRL and SLα mRNA expression. (C) Effects of 24-h co-treatment with PLC inhibitor U73122, PKC inhibitor GF109203X (10 μM), or IP3 receptor blocker 2-APB (10 μM) on HK2-induced PRL and SLα mRNA expression. (D) Effects of 24-h co-treatment with the VSCC inhibitor nifedipine (10 μM), CaM antagonist calmidazolium (1 μM) or CaMK-II blocker KN62 (10 μM) on HK2-induced PRL and SLα mRNA expression. After drug treatment, the total RNA of the cells was extracted by the Trizol method, and the expression of various genes was detected by RT-PCR. Data presented were expressed as mean ± SEM, and the differences between groups were significant at p-value < 0.05 by labeling diverse letters.
Figure 8 The receptor specificity and signal transduction for CART2, NMB1, and UTS1 regulation by HK2 in grass carp pituitary cells. (A) The pituitary cells were treated for 24 h with grass carp HK2 (1 μM) in the presence or absence of NK1R antagonist Rolaptiant (10 μM) or NK3R antagonist SB222200 (10 μM). (B) Effects of 24-h co-treatment with an AC inhibitor MDL12330A (10 μM) or PKA inhibitor H89 (10 μM) on HK2-induced CART2, UTS1, or NMB1 mRNA expression. (C) Effects of 24h co-treatment with a PLC inhibitor U73122, PKC inhibitor GF109203X (10 μM), or IP3 receptor blocker 2-APB (10 μM) on HK2-induced CART2, UTS1 or NMB1 mRNA expression. (D) Effects of 24-h co-treatment with the VSCC inhibitor nifedipine (10 μM), CaM antagonist calmidazolium (1 μM), or CaMK-II blocker KN62 (10 μM) on HK2-induced CART2, UTS1 or NMB1 mRNA expression.

Row | SMILES | effect on HK2-induced CART2 mRNA expression | effect on HK2-induced NMB1 mRNA expression | effect on HK2-induced PRL mRNA expression | effect on HK2-induced SLα mRNA expression | effect on HK2-induced UTS1 mRNA expression
1 | Clc1ccc(C(c2ccc(Cl)cc2)n2cc[n+](CC(OCc3ccc(Cl)cc3Cl)c3ccc(Cl)cc3Cl)c2)cc1 (stereo not drawn) [calmidazolium] | suppressed/totally abolished | suppressed/totally abolished | suppressed or totally abolished | suppressed or totally abolished | suppressed/totally abolished

same assay, conditions: inhibitor 10 μM with HK2 1 μM, 24 h co-treatment

Row | SMILES | effect on HK2-induced CART2 mRNA expression | effect on HK2-induced NMB1 mRNA expression | effect on HK2-induced PRL mRNA expression | effect on HK2-induced SLα mRNA expression | effect on HK2-induced UTS1 mRNA expression
2 | CN([C@@H](Cc1ccc(OS(=O)(=O)c2cccc3cnccc23)cc1)C(=O)N1CCN(c2ccccc2)CC1)S(=O)(=O)c1cccc2cnccc12 [KN62] | suppressed/totally abolished | suppressed/totally abolished | suppressed or totally abolished | suppressed or totally abolished | suppressed/totally abolished
3 | CC[C@H](NC(=O)c1c(C)c(-c2ccccc2)nc2ccccc12)c1ccccc1 [SB222200] | totally abolished | totally abolished | could not be totally abolished | totally blocked | totally abolished
4 | C[C@@H](OC[C@@]1(c2ccccc2)CC[C@]2(CCC(=O)N2)CN1)c1cc(C(F)(F)F)cc(C(F)(F)F)c1 [Rolaptiant] |  | not with the NK1R antagonist Rolaptiant | could not be totally abolished | only partially block | 
5 | CN(C)CCCn1cc(C2=C(c3c[nH]c4ccccc34)C(=O)NC2=O)c2ccccc21 [GF109203X] | effective in blocking | effective in blocking | totally abolished | totally abolished | effective in blocking
6 | COc1ccc2c(c1)CC[C@@H]1[C@@H]2CC[C@]2(C)[C@@H](NCCCCCCN3C(=O)C=CC3=O)CC[C@@H]12 [U73122] | effective in blocking | effective in blocking | totally abolished | totally abolished | effective in blocking
7 | NCCOB(c1ccccc1)c1ccccc1 [2-APB] | effective in blocking | effective in blocking | totally abolished | totally abolished | effective in blocking
8 | O=S(=O)(NCCNC/C=C/c1ccc(Br)cc1)c1cccc2cnccc12 [H89] | abolished | abolished | effective in blocking | effective in blocking | abolished
9 | COC(=O)C1=C(C)NC(C)=C(C(=O)OC)C1c1ccccc1[N+](=O)[O-] [nifedipine] | suppressed/totally abolished | suppressed/totally abolished | suppressed or totally abolished | suppressed or totally abolished | suppressed/totally abolished
10 | Cl.c1ccc(C2CCCC2NC2=NCCCCCCCCCCC2)cc1 (stereo not drawn) [MDL12330A] | abolished | abolished | effective in blocking | effective in blocking | abolished
